Data on four compounds can be found in ChEMBL document CHEMBL1201862, “PubChem BioAssay data set” (2004).

Each structure is given as a SMILES string.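 These data come from cells grown in 96-well plates and exposed to compound for 48 hours at five concentrations. Abbreviation: GI50, concentration required for 50% inhibition of growth.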 Activity calls are given as the source filed them. No stated cut-off is given here; in the data, active = GI50 up to about 1.1 µM and inactive = higher.

Test systems include MDA-MB-435; LOX IMVI; HCC 2998; SNB-75; EKVX; 786-0; SNB-19; OVCAR-8; RXF 393; HCT-116; PC-3; SW-620; NCI-H522; SK-OV-3; RPMI-8226; OVCAR-5; Malme-3M; A549; HL-60; HOP-92.
What all share (test): NCI tumour cell line growth inhibition, 48 h

For the compound `CC1CCCN1CCCOC(=O)c1ccc(OC2C=CCCC2)cc1` (stereo not given), the GI50 in the test on MDA-MB-435 was > 100 µM (inactive); in the test with LOX IMVI it was 19.7 µM (inactive); with HCC 2998, 28.6 µM (inactive); in the test on SNB-75, 7.74 µM (inactive); in the test with EKVX it was 51.4 µM (inactive); in the test with 786-0 it was 22.3 µM (inactive). Further, the GI50 in the test on SNB-19 was 38.2 µM (inactive); in the test on OVCAR-8 it was 47.6 µM (inactive); in the test with RXF 393, 26.7 µM (inactive); with HCT-116, 17.2 µM (inactive); in the test on PC-3, 22.4 µM (inactive); with SW-620 it was 20.7 µM (inactive). Moreover, the GI50 is 20.9 µM (inactive) with NCI-H522; 56.1 µM (inactive) in the test on SK-OV-3; 31.8 µM (inactive) with RPMI-8226; 71.9 µM (inactive) in the test on OVCAR-5; 18.9 µM (inactive) in the test on Malme-3M; 42.1 µM (inactive) in the test on A549. In addition, the GI50 with HL-60 was 17.4 µM (inactive).

Turning to `C=C(CC[C@@H](C)[C@H]1CC[C@@]2(C)C3=C(CC[C@]12C)[C@@]1(C)CC[C@H](O)[C@@H](C)C1CC3)C(C)C` (stereo not given in full), the GI50 in the test with MDA-MB-435 was 1.32 µM (inactive); in the test with LOX IMVI it was 0.906 µM (active); in the test on HCC 2998, 1.53 µM (inactive); in the test on SNB-75, 1.25 µM (inactive); in the test on EKVX it was 1.23 µM (inactive); in the test with 786-0, 0.984 µM (active). The GI50 in the test on SNB-19 is 2.17 µM (inactive); in the test with OVCAR-8, 1.61 µM (inactive); in the test on RXF 393, 1.37 µM (inactive); with HCT-116 it was 1.31 µM (inactive); in the test with PC-3, 1.07 µM (active); with SW-620, 1.71 µM (inactive). The GI50 in the test on HOP-92 is 1.18 µM (inactive); with SK-OV-3 it was 1.6 µM (inactive); in the test on OVCAR-5, 1.42 µM (inactive); in the test with Malme-3M it was 1.29 µM (inactive); in the test with A549, 1.2 µM (inactive); with HL-60 it was 0.361 µM (active).

As to `NC(=O)C(=O)c1ncn(Cc2ccccc2)c1N`, the GI50 with MDA-MB-435 is > 100 µM (inactive); in the test on LOX IMVI, 89.5 µM (inactive); in the test on HCC 2998, > 100 µM (inactive); with SNB-75, > 100 µM (inactive); with EKVX it was > 100 µM (inactive); with 786-0, > 100 µM (inactive). Further, the GI50 with SNB-19, in the test with OVCAR-8, in the test with RXF 393, with HCT-116, in the test with PC-3 and with SW-620 was > 100 µM (inactive) each time. The GI50 in the test with NCI-H522, in the test with SK-OV-3, in the test on RPMI-8226, in the test on OVCAR-5, in the test on Malme-3M and in the test with A549 was > 100 µM (inactive) each time. In the test with HL-60, the GI50 was > 100 µM (inactive).

Take `COc1ccc(CC2Cc3ccccc3CCN2)cc1OC` (stereo not given): the GI50 is > 50 µM (inactive) in the test with MDA-MB-435; 38.5 µM (inactive) in the test on LOX IMVI; > 50 µM (inactive) in the test with HCC 2998; 31.1 µM (inactive) with SNB-75; 26.2 µM (inactive) in the test with EKVX; 26.3 µM (inactive) with 786-0. Also, the GI50 was > 50 µM (inactive) in the test on SNB-19; > 50 µM (inactive) in the test with OVCAR-8; 12 µM (inactive) in the test on RXF 393; 20.9 µM (inactive) with HCT-116; > 50 µM (inactive) in the test with PC-3; > 50 µM (inactive) with SW-620. Also, the GI50 was 17.9 µM (inactive) with HOP-92; > 50 µM (inactive) in the test on SK-OV-3; 18.3 µM (inactive) with RPMI-8226; 38.2 µM (inactive) with OVCAR-5; 25.5 µM (inactive) with Malme-3M; 29.8 µM (inactive) in the test with A549. Moreover, the GI50 with HL-60 was 13.2 µM (inactive).
